Test results published in the supplement of paper PMC10307832.

How the values were obtained:
Assay in all cases: relative viability (nuclei count vs DMSO), 5 days (fraction); higher = more cells survive
[1] = compound: CC1=C(C=CC(=C1)[N+](=O)[O-])NS(=O)(=O)C2=C(C=CC(=C2)Cl)Cl [FH535] + N=C(N)NC(=N)NCCc1ccccc1 [Phenformin] (partner 250 µM)
Method in brief: (§1)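 Relative viability divides the nuclei count in treated wells by that in vehicle wells. Lung cancer cell lines were seeded in 1536-well plates, dosed by pin tool the next day, and fixed and stained after 5 days in one step with final 0.05% Triton X-100, 1% formaldehyde and 1 ug/ml Hoechst. Dosing was a single drug or a fixed anchor-drug dose plus five library-drug doses (not always all listed) in √10 steps, and values are medians of duplicate plates imaged at 4×.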

[2] = compound: CC1=C(C=CC(=C1)[N+](=O)[O-])NS(=O)(=O)C2=C(C=CC(=C2)Cl)Cl [FH535] + Cc1nc(NC(=O)N2CCC[C@H]2C(N)=O)sc1-c1ccnc(C(C)(C)C(F)(F)F)c1 [Alpelisib] (partner 2 µM)
Method in brief: as §1

[3] = compound: CC1=C(C=CC(=C1)[N+](=O)[O-])NS(=O)(=O)C2=C(C=CC(=C2)Cl)Cl [FH535] + Cc1cc(Nc2cc(N3CCN(C)CC3)nc(Sc3ccc(NC(=O)C4CC4)cc3)n2)n[nH]1 [Tozasertib] (partner 0.1 µM)
Method in brief: as §1

[4] = compound: CC1=C(C=CC(=C1)[N+](=O)[O-])NS(=O)(=O)C2=C(C=CC(=C2)Cl)Cl [FH535] + CS(=O)(=O)N1CCN(Cc2cc3nc(-c4cccc5[nH]ncc45)nc(N4CCOCC4)c3s2)CC1 [Pictilisib] (partner 1 µM)
Method in brief: as §1

[5] = compound: CC1=C(C=CC(=C1)[N+](=O)[O-])NS(=O)(=O)C2=C(C=CC(=C2)Cl)Cl [FH535] + O=C(CCCCCCC(=O)Nc1ccccc1)NO [Vorinostat] (partner 1 µM)
Method in brief: as §1

Cell Line | relative viability ([1]; first compound 0.04 µM) | relative viability ([1]; first compound 0.1265 µM) | relative viability ([1]; first compound 0.4 µM) | relative viability ([1]; first compound 1.265 µM) | relative viability ([2]; first compound 0.04 µM) | relative viability ([2]; first compound 0.1265 µM) | relative viability ([2]; first compound 0.4 µM) | relative viability ([2]; first compound 1.265 µM) | relative viability ([3]; first compound 0.04 µM) | relative viability ([3]; first compound 0.1265 µM) | relative viability ([3]; first compound 0.4 µM) | relative viability ([3]; first compound 1.265 µM) | relative viability ([4]; first compound 0.04 µM) | relative viability ([4]; first compound 0.1265 µM) | relative viability ([4]; first compound 0.4 µM) | relative viability ([4]; first compound 1.265 µM) | relative viability ([5]; first compound 0.04 µM) | relative viability ([5]; first compound 0.1265 µM) | relative viability ([5]; first compound 0.4 µM) | relative viability ([5]; first compound 1.265 µM)
NCI-H1651 | 0.318 | 0.319 | 0.221 | 0.188 | 1 | 1.07 | 1.04 | 0.69 | 0.753 | 0.639 | 0.633 | 0.64 | 0.572 | 0.504 | 0.562 | 0.509 | 0.473 | 0.531 | 0.606 | 0.52
NCI-H1666 | 0.582 | 0.513 | 0.476 | 0.373 | 1.04 | 0.956 | 1.01 | 0.693 | 0.6 | 0.544 | 0.631 | 0.545 | 0.481 | 0.443 | 0.404 | 0.4 | 1.01 | 0.995 | 0.992 | 0.959
NCI-H1734 |  | 0.394 | 0.373 | 0.269 | 0.651 | 0.715 | 0.693 | 0.617 |  | 0.26 | 0.263 | 0.297 | 0.458 | 0.523 | 0.489 | 0.416 | 0.547 | 0.784 | 0.822 | 0.778
NCI-H1755 | 0.539 | 0.627 | 0.558 | 0.494 | 0.941 | 0.897 | 0.853 | 0.867 | 0.569 | 0.533 | 0.515 | 0.525 | 0.341 | 0.449 | 0.421 | 0.415 | 0.616 | 0.807 | 0.752 | 0.707
NCI-H1793 | 0.39 | 0.256 | 0.278 | 0.211 | 0.597 | 0.721 | 0.618 | 0.541 | 0.305 | 0.297 | 0.353 | 0.213 | 0.344 | 0.401 | 0.313 | 0.301 | 0.505 | 0.519 | 0.63 | 0.568
NCI-H1915 | 0.339 | 0.385 | 0.309 | 0.292 | 1 | 1.07 | 1.05 | 0.738 | 0.38 | 0.418 | 0.429 | 0.356 | 0.732 | 0.903 | 0.835 | 0.77 | 0.44 | 0.481 | 0.534 | 0.532
NCI-H1944 | 0.17 | 0.205 | 0.161 | 0.109 |  | 0.858 | 0.848 | 0.837 | 0.237 | 0.265 | 0.234 | 0.236 |  | 0.37 | 0.34 | 0.344 | 0.291 | 0.575 | 0.425 | 0.509
NCI-H1975 | 0.384 | 0.402 | 0.35 | 0.256 | 0.614 | 0.682 | 0.607 | 0.487 | 0.654 | 0.726 | 0.602 | 0.635 | 0.274 | 0.274 | 0.296 | 0.244 | 0.651 | 0.744 | 0.675 | 0.622
NCI-H1993 | 0.415 | 0.495 | 0.533 | 0.524 | 0.629 | 0.78 | 0.662 | 0.596 | 0.53 | 0.596 | 0.551 | 0.472 | 0.679 | 0.747 | 0.769 | 0.709 | 0.822 | 0.801 | 0.606 | 0.57
NCI-H2009 | 0.486 | 0.447 | 0.402 | 0.179 | 1.15 | 1.16 | 1.17 | 0.959 | 0.777 | 0.806 | 0.747 | 0.631 | 0.753 | 0.87 | 0.724 | 0.763 | 0.732 | 0.762 | 0.693 | 0.602
NCI-H2023 | 0.384 | 0.375 | 0.314 | 0.191 | 0.659 | 0.629 | 0.686 | 0.604 | 0.296 | 0.371 | 0.354 | 0.301 | 0.209 | 0.226 | 0.252 | 0.231 | 0.473 | 0.703 | 0.663 | 0.537
NCI-H2085 | 0.687 | 0.65 | 0.585 | 0.451 | 0.959 | 0.977 | 0.941 | 0.675 | 0.845 | 0.784 | 0.726 | 0.522 | 0.407 | 0.568 | 0.481 | 0.486 | 0.815 | 0.849 | 0.659 | 0.62
NCI-H2087 | 0.425 | 0.398 | 0.286 | 0.155 | 1.11 | 1.04 | 0.887 | 0.613 | 0.252 | 0.223 | 0.276 | 0.212 | 0.885 | 0.885 | 0.731 | 0.52 | 0.566 | 0.782 | 0.693 | 0.551
NCI-H2126 | 0.525 | 0.53 | 0.457 | 0.348 | 0.744 | 0.744 | 0.718 | 0.626 | 0.809 | 0.823 | 0.832 | 0.583 | 0.472 | 0.497 | 0.472 | 0.425 | 0.72 | 0.782 | 0.727 | 0.567
NCI-H2170 | 0.394 | 0.416 | 0.319 | 0.28 | 0.853 | 0.965 | 0.784 | 0.769 | 0.674 | 0.772 | 0.69 | 0.697 | 0.255 | 0.418 | 0.315 | 0.285 | 0.713 | 0.816 | 0.768 | 0.69
NCI-H2228 | 0.241 | 0.377 | 0.288 | 0.224 | 0.687 | 0.669 | 0.911 | 0.63 | 0.238 | 0.244 | 0.305 | 0.215 | 0.327 | 0.416 | 0.369 | 0.305 | 0.585 | 0.698 | 0.977 | 0.593
NCI-H2347 | 0.409 | 0.332 | 0.425 | 0.27 | 1.01 | 1.09 | 0.966 | 0.837 | 0.633 | 0.461 | 0.522 | 0.631 | 0.484 | 0.591 | 0.639 | 0.726 | 0.753 | 0.681 | 0.608 | 0.52
NCI-H2405 | 0.395 | 0.378 | 0.344 | 0.331 | 0.685 | 0.843 | 0.84 | 0.585 | 0.746 | 0.755 | 0.782 | 0.579 | 0.329 | 0.447 | 0.425 | 0.422 | 0.945 | 0.965 | 0.776 | 0.458
NCI-H3122 | 0.374 | 0.344 | 0.286 | 0.164 | 0.715 | 0.782 | 0.829 | 0.745 | 0.329 | 0.367 | 0.475 | 0.369 | 0.583 | 0.585 | 0.57 | 0.564 | 0.901 | 1.1 | 0.979 | 0.966
PC-3 [JPC-3] | 0.448 | 0.405 | 0.37 | 0.372 | 1 | 1.07 | 0.951 | 0.686 | 0.846 | 0.901 | 0.795 | 0.513 | 0.746 | 0.902 | 0.698 | 0.47 | 0.757 | 0.769 | 0.687 | 0.529
PC-14 | 0.571 | 0.708 | 0.516 | 0.331 | 0.88 | 0.967 | 0.94 | 0.925 | 0.507 | 0.693 | 0.615 | 0.617 | 0.73 | 0.743 | 0.709 | 0.655 | 0.741 | 0.607 | 0.782 | 0.797
RERF-LC-KJ | 0.38 | 0.429 | 0.406 | 0.308 | 0.739 | 0.822 | 0.921 | 0.751 | 0.515 | 0.52 | 0.473 | 0.386 | 0.49 | 0.534 | 0.478 | 0.392 | 0.632 | 0.64 | 0.685 | 0.573
SK-LU-1 | 0.563 | 0.622 | 0.491 | 0.305 | 0.913 | 1.1 | 0.949 | 0.616 | 0.319 | 0.38 | 0.316 | 0.32 | 0.503 | 0.568 | 0.487 | 0.4 | 0.731 | 0.814 | 0.736 | 0.456
SK-MES-1 | 0.71 | 0.614 | 0.553 | 0.385 | 0.865 | 0.941 | 0.855 | 0.881 | 0.952 | 0.954 | 0.751 | 0.658 | 0.329 | 0.384 | 0.365 | 0.411 | 1.1 | 1.19 | 1.02 | 0.918
SW 1573 | 0.387 | 0.372 | 0.307 | 0.163 | 0.726 | 0.693 | 0.623 | 0.689 | 0.171 | 0.164 | 0.215 | 0.161 | 0.485 | 0.612 | 0.471 | 0.465 | 0.614 | 0.666 | 1.04 | 0.66
UMC-11 | 0.289 | 0.378 | 0.28 | 0.211 | 0.939 | 1.13 | 0.96 | 0.857 | 0.189 | 0.213 | 0.196 | 0.202 | 0.749 | 0.619 | 0.726 | 0.787 | 0.346 | 0.384 | 0.309 | 0.469
